The values that follow come from ChEMBL document CHEMBL3588818 (Eur J Med Chem, 2015).

Test [1] deals with Sigma non-opioid intracellular receptor 1 (Rattus norvegicus, UniProt Q9R0C9). As to the kind of experiment: Displacement of […] from sigma1 receptor in Sprague-Dawley rat cortical membranes incubated for 2 hrs by liquid scintillation counting based competitive radioligand binding assay. The following applies: read-out: Ki(app).
The subject of test [2] is PC-12. As to the kind of experiment: Selectivity index, ratio of Ki for sigma2 receptor in Sprague-Dawley rat liver membranes to Ki for rat VAChT expressed in PC12 cell membranes. It is filed as cell-based.
Test [3] is described as follows: Displacement of [3H]DTG from sigma2 receptor in Sprague-Dawley rat liver membranes incubated for 2 hrs in presence of dextrallorphan by liquid scintillation counting based competitive radioligand binding assay. The following applies: read-out: Ki(app). For orientation: Loss of bound radioactivity is the signal in a displacement assay; it reports binding, not function.

The target in test [4] is T1, Vesicular acetylcholine transporter (Rattus norvegicus, UniProt Q62666).
T1 sequence (Q62666 whole entry): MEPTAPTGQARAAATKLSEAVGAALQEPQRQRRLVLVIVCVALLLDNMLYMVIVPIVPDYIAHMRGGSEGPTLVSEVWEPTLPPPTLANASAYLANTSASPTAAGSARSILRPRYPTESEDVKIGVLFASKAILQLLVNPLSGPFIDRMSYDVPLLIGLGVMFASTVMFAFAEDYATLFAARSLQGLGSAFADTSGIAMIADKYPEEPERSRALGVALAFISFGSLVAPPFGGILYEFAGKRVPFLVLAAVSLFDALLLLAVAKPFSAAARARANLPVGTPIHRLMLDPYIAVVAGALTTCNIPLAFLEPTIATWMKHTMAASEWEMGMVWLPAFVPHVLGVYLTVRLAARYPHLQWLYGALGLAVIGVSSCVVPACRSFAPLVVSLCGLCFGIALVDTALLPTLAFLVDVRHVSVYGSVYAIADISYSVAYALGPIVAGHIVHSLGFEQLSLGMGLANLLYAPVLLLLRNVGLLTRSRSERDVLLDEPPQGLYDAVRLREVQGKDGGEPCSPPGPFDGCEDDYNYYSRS
As to the kind of experiment: Displacement of (-)-[3H]vesamicol from rat VAChT expressed in PC12 cell membranes incubated for 2 hrs by liquid scintillation counting based competitive radioligand binding assay. Further details: species or system PC-12. The following applies: read-out: Ki(app).

Test [5] has as its system PC-12. Kind of test: Selectivity index, ratio of Ki for sigma1 receptor in Sprague-Dawley rat cortical membranes to Ki for rat VAChT expressed in PC12 cell membranes. It is filed as cell-based.

Bounds are passed on as bounds.

Sigma non-opioid intracellular receptor 1, sequence (Q9R0C9 whole entry): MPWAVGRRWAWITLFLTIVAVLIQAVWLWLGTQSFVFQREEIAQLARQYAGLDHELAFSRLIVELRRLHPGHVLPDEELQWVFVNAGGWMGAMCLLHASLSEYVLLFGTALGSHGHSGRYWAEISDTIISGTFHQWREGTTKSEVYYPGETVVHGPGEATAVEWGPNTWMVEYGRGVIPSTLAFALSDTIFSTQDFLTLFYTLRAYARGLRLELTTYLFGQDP

On to `O[C@@H]1CC[C@@H](OCc2ccc(F)cc2)C[C@H]1N1CCC(O)(c2ccccc2)CC1` (racemic), for which the Ki in test [1] was 0.0473 µM; in test [3], 0.134 µM; in test [4] it was 0.316 µM. Besides, the Ratio Ki was found to be 0.4 in the test with PC-12 [2] and 0.2 in the test on PC-12 [5].
`O[C@@H]1Cc2ccccc2C[C@H]1N1CCC(c2ccccc2)CC1` (racemic) [BENZOVESAMICOL]: the Ki in test [1] was found to be 0.0261 µM; in test [3], 0.0964 µM.
For `CCN(CCCc1ccccc1)[C@@H]1CC[C@H](OCc2ccc(F)cc2)C[C@H]1O` (racemic), the Ki in test [1] amounted to 0.0197 µM; in test [3], 0.28 µM; in test [4], 1.93 µM. Besides, the figures for the Ratio Ki with PC-12 [2] and with PC-12 [5] were 0.1 and less than 0.1, respectively.
For `O[C@@H]1C[C@@H](OCc2ccc(F)cc2)CC[C@H]1N1CCC(c2ccccc2)(c2ccccc2)CC1` (racemic), in that order: 0.736 µM, 5.54 µM, 2.73 µM, 2 and 0.3.
For `O[C@@H]1Cc2ccccc2C[C@H]1N1CCC(Cc2ccccc2)CC1` (racemic), in that order: 0.065 µM, 0.06 µM, 0.0232 µM, 2.6 and 2.8.
In the case of `CCN(CCCc1ccccc1)[C@@H]1CCCC[C@H]1O` (racemic), the Ki in test [1] was 0.115 µM; in test [3], 0.652 µM; in test [4], more than 10 µM.
For the compound `O[C@@H]1C[C@@H](OCCCF)CC[C@H]1N1CCC(c2ccccc2)CC1` (racemic), the Ki in test [1] was found to be 0.0976 µM; in test [3] it was 0.717 µM; in test [4], 0.0596 µM. In addition, the Ratio Ki was determined as 12 with PC-12 [2] and 1.6 in the test with PC-12 [5].
For `O=C(Nc1cccc2c1C[C@@H](N1CCC(c3ccccc3)CC1)[C@H](O)C2)c1ccc(F)cc1` (racemic), in that order: 6.43 µM, 3.62 µM, 0.156 µM, 23.2 and 41.2.
Take `O[C@@H]1C[C@@H](OCc2ccc(F)cc2)CC[C@H]1N1CCC(N2CCCCC2)CC1` (racemic): the Ki in test [1] was 0.3 µM; in test [3], 0.374 µM; in test [4], more than 10 µM.
With `O[C@@H]1CC[C@@H](OCc2ccc(F)cc2)C[C@H]1N1CCC(c2ccccc2)CC1` (racemic), the values for the Ki in test [1], in test [3] and in test [4] were 0.0166 µM, 0.0531 µM and 0.0251 µM, respectively. Further, the figures for the Ratio Ki in the test with PC-12 [2] and in the test on PC-12 [5] were 2.1 and 0.7, respectively.
For `O=C(c1ccc(F)cc1)C1CCN([C@@H]2CC[C@H](OCc3ccc(F)cc3)C[C@H]2O)CC1` (racemic), in that order: 0.0654 µM, 2 µM, 5.84 µM, 0.3 and less than 0.1.
For `O[C@@H]1CCCC[C@H]1N1CCN(c2ccccc2)CC1` (racemic), in that order: 0.0839 µM, 0.695 µM, 0.838 µM, 0.8 and 0.1.
For `O[C@@H]1CCCC[C@H]1N1CCC(O)(c2ccccc2)CC1` (racemic), in that order: 0.454 µM, 1.99 µM, 1 µM, 1.9 and 0.4.
For `O=C(c1ccc(F)cc1)C1CCN([C@@H]2CCCC[C@H]2O)CC1` (racemic), the Ki in test [1] came out at 0.0609 µM; in test [3] it was 0.73 µM; in test [4], 3.24 µM. The Ratio Ki was 0.2 with PC-12 [2] and less than 0.1 with PC-12 [5].
In the case of `O=C(c1ccc(F)cc1)C1CCN([C@@H]2C[C@H](OCc3ccc(F)cc3)CC[C@H]2O)CC1` (racemic), the Ki worked out at 0.0594 µM in test [1], 0.64 µM in test [3] and 1.03 µM in test [4]. The Ratio Ki with PC-12 [2] is 0.6; with PC-12 [5], less than 0.1.
For `O=C(Nc1cccc2c1C[C@@H](N1CCC(Cc3ccccc3)CC1)[C@H](O)C2)c1ccc(F)cc1` (racemic), in that order: 1.77 µM, 2.08 µM, 0.527 µM, 3.9 and 3.4.
As for `O[C@@H]1C[C@@H](OCc2ccc(F)cc2)CC[C@H]1N1CCC(O)(c2ccccc2)CC1` (racemic), the Ki was 0.031 µM in test [1], 0.254 µM in test [3] and more than 10 µM in test [4].
For the compound `O[C@@H]1CCCC[C@H]1N1CC=C(c2ccccc2)CC1` (racemic), the Ki turned out to be 0.0097 µM in test [1], 0.158 µM in test [3] and 0.439 µM in test [4]. Also, the Ratio Ki in the test with PC-12 [2] was 0.4; with PC-12 [5], less than 0.1.
For `O[C@@H]1CCCC[C@H]1N1CCC(Cc2ccccc2)CC1` (racemic), in that order: 0.0201 µM, 0.108 µM, 0.647 µM, 0.2 and less than 0.1.
Take `O[C@@H]1CC[C@@H](OCc2ccc(F)cc2)C[C@H]1N1CCC(c2ccncc2)CC1` (racemic): the Ki in test [1] is 0.0264 µM; in test [3], 0.0858 µM; in test [4], 1.35 µM. In addition, the Ratio Ki with PC-12 [2] and with PC-12 [5] was less than 0.1 throughout.
As to `O[C@@H]1Cc2cccc(OCCF)c2C[C@H]1N1CCC(c2ccccc2)CC1` (racemic), the Ratio Ki with PC-12 [5] turned out to be 10.7.
On to `CC(=O)C1(c2ccccc2)CCN([C@@H]2CC[C@H](OCc3ccc(F)cc3)C[C@H]2O)CC1` (racemic), for which the Ki in test [1] was 0.12 µM; in test [3], 0.103 µM; in test [4] it was more than 10 µM.
Consider `CCN(CCCc1ccccc1)[C@@H]1C[C@H](OCc2ccc(F)cc2)CC[C@H]1O` (racemic), for which the Ki in test [1] worked out at 0.0105 µM; in test [3], 0.109 µM; in test [4], 1.61 µM. Moreover, the Ratio Ki with PC-12 [2] is less than 0.1.
`O[C@@H]1CCCC[C@H]1N1CCc2ccccc2C1` (racemic): the results for the Ki in test [1] and in test [3] were 0.0543 µM and 0.809 µM, respectively.
For the compound `O=C(Nc1cccc2c1C[C@@H](O)[C@H](N1CCC(Cc3ccccc3)CC1)C2)c1ccc(F)cc1` (racemic), the Ki in test [1] was 0.296 µM; in test [3], 2.11 µM; in test [4] it was more than 10 µM.
For the compound `O[C@@H]1Cc2ccccc2C[C@H]1N1CC=C(c2ccccc2)CC1` (racemic), the values for the Ki in test [1] and in test [3] were 0.024 µM and 0.166 µM, respectively.
As for `O[C@@H]1C[C@@H](OCc2ccc(F)cc2)CC[C@H]1N1CCc2ccccc2C1` (racemic), the Ki in test [1] is 0.0231 µM; in test [3], 0.0456 µM; in test [4], more than 10 µM.
For `O[C@@H]1CCCC[C@H]1N1CCC(c2ccncc2)CC1` (racemic), in that order: more than 1 µM, 3.32 µM and 3.38 µM.
With `O[C@@H]1CCCC[C@H]1N1CCC(N2CCCCC2)CC1` (racemic), the results for the Ki in test [1], in test [3] and in test [4] were more than 1 µM, 4.71 µM and 5.11 µM, respectively.
Turning to `O[C@@H]1C[C@@H](OCc2ccc(F)cc2)CC[C@H]1N1CCC(c2ccncc2)CC1` (racemic), the Ki in test [1] is 0.0411 µM; in test [3], 0.164 µM; in test [4] it was more than 10 µM.
For `O[C@@H]1CCCC[C@H]1N1CCC(c2ccccc2)CC1` (racemic) [VESAMICOL], the Ki in test [3] was 0.112 µM.
